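Grown in 96-well plates, cells were treated for 48 hours with each compound at five concentrations. Insufficient inhibition: endpoint recorded as highest concentration tested. Abbreviation: GI50, concentration required for 50% inhibition of growth. TGI: total growth inhibition.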
Experiments:
Assay in all cases: NCI tumour cell line growth inhibition, 48 h
OVCAR-3 ovarian = tested on: OVCAR-3 ovarian
OVCAR-4 ovarian = tested on: OVCAR-4 ovarian
TK-10 renal = tested on: TK-10 renal
NCI-H226 lung = tested on: NCI-H226 lung
K-562 leukemia = tested on: K-562 leukemia
NCI-H23 lung = tested on: NCI-H23 lung
KM12 colon = tested on: KM12 colon
RXF-631 renal = tested on: RXF-631 renal
EKVX NSCLC = tested on: EKVX NSCLC
UACC-257 melanoma = tested on: UACC-257 melanoma
M14 melanoma = tested on: M14 melanoma
DLD-1 colon = tested on: DLD-1 colon
LXFL 529 NSCLC = tested on: LXFL 529 NSCLC
NCI-H522 lung = tested on: NCI-H522 lung
HL-60(TB) leukemia = tested on: HL-60(TB) leukemia
UACC-62 melanoma = tested on: UACC-62 melanoma
LOX IMVI melanoma = tested on: LOX IMVI melanoma
CCRF-CEM leukemia = tested on: CCRF-CEM leukemia
A549 NSCLC = tested on: A549 NSCLC
UO-31 renal = tested on: UO-31 renal
SN12C renal = tested on: SN12C renal
NCI-H460 lung = tested on: NCI-H460 lung
SF-295 CNS = tested on: SF-295 CNS
SW-620 colon = tested on: SW-620 colon
HCT-116 colon = tested on: HCT-116 colon
OVCAR-5 ovarian = tested on: OVCAR-5 ovarian
SNB-75 CNS = tested on: SNB-75 CNS
IGROV1 ovarian = tested on: IGROV1 ovarian
M19-MEL melanoma = tested on: M19-MEL melanoma
SF-539 CNS = tested on: SF-539 CNS
CAKI-1 renal = tested on: CAKI-1 renal
A498 renal = tested on: A498 renal
MOLT-4 leukemia = tested on: MOLT-4 leukemia
SK-MEL-28 melanoma = tested on: SK-MEL-28 melanoma
SK-MEL-2 melanoma = tested on: SK-MEL-2 melanoma
MALME-3M melanoma = tested on: MALME-3M melanoma
SF-268 CNS = tested on: SF-268 CNS
COLO 205 colon = tested on: COLO 205 colon
SK-OV-3 ovarian = tested on: SK-OV-3 ovarian
HOP-62 NSCLC = tested on: HOP-62 NSCLC
SNB-19 CNS = tested on: SNB-19 CNS
HOP-92 NSCLC = tested on: HOP-92 NSCLC
DMS 114 small cell lung = tested on: DMS 114 small cell lung
HOP-18 NSCLC = tested on: HOP-18 NSCLC
U251 CNS = tested on: U251 CNS
RPMI-8226 leukemia = tested on: RPMI-8226 leukemia
HT29 colon = tested on: HT29 colon
HCT-15 colon = tested on: HCT-15 colon
ACHN renal = tested on: ACHN renal
RXF 393 renal = tested on: RXF 393 renal
786-0 renal = tested on: 786-0 renal
SNB-78 CNS = tested on: SNB-78 CNS
OVCAR-8 ovarian = tested on: OVCAR-8 ovarian
SK-MEL-5 melanoma = tested on: SK-MEL-5 melanoma
DMS 273 small cell lung = tested on: DMS 273 small cell lung
XF 498 CNS = tested on: XF 498 CNS
KM20L2 colon = tested on: KM20L2 colon
SR leukemia = tested on: SR leukemia
HCC-2998 colon = tested on: HCC-2998 colon

COc1cc(-c2cc(CCC(=O)Nc3ccccc3[N+](=O)[O-])n(-c3ccc([N+](=O)[O-])cc3[N+](=O)[O-])n2)ccc1O
TGI (OVCAR-3 ovarian): > 10 µM | GI50 (OVCAR-4 ovarian): > 100 µM | TGI (OVCAR-4 ovarian): > 100 µM | GI50 (TK-10 renal): > 100 µM | TGI (TK-10 renal): > 100 µM | GI50 (NCI-H226 lung): > 100 µM | TGI (NCI-H226 lung): > 100 µM | GI50 (K-562 leukemia): > 10 µM | TGI (K-562 leukemia): > 100 µM | GI50 (NCI-H23 lung): > 100 µM | TGI (NCI-H23 lung): > 100 µM | TGI (KM12 colon): > 10 µM | GI50 (RXF-631 renal): > 100 µM | TGI (RXF-631 renal): > 100 µM | GI50 (EKVX NSCLC): > 100 µM | TGI (EKVX NSCLC): > 100 µM | TGI (UACC-257 melanoma): > 10 µM | GI50 (M14 melanoma): > 100 µM | TGI (M14 melanoma): > 100 µM | GI50 (DLD-1 colon): > 100 µM | TGI (DLD-1 colon): > 100 µM | GI50 (LXFL 529 NSCLC): > 10 µM | TGI (LXFL 529 NSCLC): > 100 µM | GI50 (NCI-H522 lung): > 100 µM | TGI (NCI-H522 lung): > 100 µM | GI50 (HL-60(TB) leukemia): > 100 µM | TGI (HL-60(TB) leukemia): > 100 µM | GI50 (UACC-62 melanoma): > 10 µM | TGI (UACC-62 melanoma): > 100 µM | GI50 (LOX IMVI melanoma): > 100 µM | TGI (LOX IMVI melanoma): > 100 µM | GI50 (CCRF-CEM leukemia): > 100 µM | TGI (CCRF-CEM leukemia): > 100 µM | GI50 (A549 NSCLC): > 100 µM | TGI (A549 NSCLC): > 100 µM | GI50 (UO-31 renal): > 100 µM | TGI (UO-31 renal): > 100 µM | GI50 (SN12C renal): > 100 µM | TGI (SN12C renal): > 100 µM | GI50 (NCI-H460 lung): > 100 µM | TGI (NCI-H460 lung): > 100 µM | TGI (SF-295 CNS): > 10 µM | GI50 (SW-620 colon): > 100 µM | TGI (SW-620 colon): > 100 µM | GI50 (HCT-116 colon): > 100 µM | TGI (HCT-116 colon): > 100 µM | GI50 (OVCAR-5 ovarian): > 100 µM | TGI (OVCAR-5 ovarian): > 100 µM | GI50 (SNB-75 CNS): > 10 µM | TGI (SNB-75 CNS): > 100 µM | GI50 (IGROV1 ovarian): > 100 µM | TGI (IGROV1 ovarian): > 100 µM | GI50 (M19-MEL melanoma): > 100 µM | TGI (M19-MEL melanoma): > 100 µM | GI50 (SF-539 CNS): > 100 µM | TGI (SF-539 CNS): > 100 µM | GI50 (CAKI-1 renal): > 100 µM | TGI (CAKI-1 renal): > 100 µM | GI50 (A498 renal): > 100 µM | TGI (A498 renal): > 100 µM | GI50 (MOLT-4 leukemia): > 100 µM | TGI (MOLT-4 leukemia): > 100 µM | GI50 (SK-MEL-28 melanoma): > 100 µM | TGI (SK-MEL-28 melanoma): > 100 µM | GI50 (SK-MEL-2 melanoma): > 100 µM | TGI (SK-MEL-2 melanoma): > 100 µM | GI50 (MALME-3M melanoma): > 100 µM | TGI (MALME-3M melanoma): > 100 µM | GI50 (SF-268 CNS): > 100 µM | TGI (SF-268 CNS): > 100 µM | GI50 (COLO 205 colon): > 100 µM | TGI (COLO 205 colon): > 100 µM | GI50 (SK-OV-3 ovarian): > 100 µM | TGI (SK-OV-3 ovarian): > 100 µM | GI50 (HOP-62 NSCLC): > 100 µM | TGI (HOP-62 NSCLC): > 100 µM | GI50 (SNB-19 CNS): > 100 µM | TGI (SNB-19 CNS): > 100 µM | GI50 (HOP-92 NSCLC): > 100 µM | TGI (HOP-92 NSCLC): > 100 µM | GI50 (DMS 114 small cell lung): > 100 µM | TGI (DMS 114 small cell lung): > 100 µM | TGI (HOP-18 NSCLC): > 10 µM | GI50 (U251 CNS): > 100 µM | TGI (U251 CNS): > 100 µM | GI50 (RPMI-8226 leukemia): > 100 µM | TGI (RPMI-8226 leukemia): > 100 µM | TGI (HT29 colon): > 10 µM | GI50 (HCT-15 colon): > 10 µM | TGI (HCT-15 colon): > 100 µM | GI50 (ACHN renal): > 10 µM | TGI (ACHN renal): > 100 µM | GI50 (RXF 393 renal): > 100 µM | TGI (RXF 393 renal): > 100 µM | GI50 (786-0 renal): > 100 µM | TGI (786-0 renal): > 100 µM | GI50 (SNB-78 CNS): > 100 µM | TGI (SNB-78 CNS): > 100 µM | GI50 (OVCAR-8 ovarian): > 100 µM | TGI (OVCAR-8 ovarian): > 100 µM | GI50 (SK-MEL-5 melanoma): > 100 µM | TGI (SK-MEL-5 melanoma): > 100 µM | TGI (DMS 273 small cell lung): > 10 µM | TGI (XF 498 CNS): > 100 µM | GI50 (KM20L2 colon): > 100 µM | TGI (KM20L2 colon): > 100 µM | TGI (SR leukemia): > 10 µM | GI50 (HCC-2998 colon): > 100 µM | TGI (HCC-2998 colon): > 100 µM

Source: PubChem BioAssay (NCI)
